The values below come from ChEMBL document CHEMBL2412981, “Syntheses of procyanidin B2 and B3 gallate derivatives using equimolar condensation mediated by Yb(OTf)3 and their antitumor activities” (Bioorg Med Chem Lett, 2013).

Activity calls are given as the source filed them. The rule behind the calls is not given here.

This test has as its system PC-3. The test is described as follows: Antiproliferative activity against human PC3 cells at 10 to 100 uM after 48 hrs by hemocytometric cell counting method. It counts as functional, cell-based.

`O=C(O[C@@H]1[C@@H](c2c(O)cc(O)c3c2O[C@H](c2ccc(O)c(O)c2)[C@H](OC(=O)c2cc(O)c(O)c(O)c2)C3)c2c(O)cc(O)cc2O[C@@H]1c1ccc(O)c(O)c1)c1cc(O)c(O)c(O)c1`: the inhibition entry was “Active”.
For `O=C(O[C@H]1[C@H](c2c(O)cc(O)c3c2O[C@H](c2ccc(O)c(O)c2)[C@@H](OC(=O)c2cc(O)c(O)c(O)c2)C3)c2c(O)cc(O)cc2O[C@@H]1c1ccc(O)c(O)c1)c1cc(O)c(O)c(O)c1`, the inhibition entry was “Active”.
Turning to `Oc1cc(O)c2c(c1)O[C@H](c1cc(O)c(O)c(O)c1)[C@@H](O)[C@@H]2c1c(O)cc(O)c2c1O[C@H](c1cc(O)c(O)c(O)c1)[C@@H](O)C2`, the inhibition entry was “Active”.
With `O=C(O[C@H]1Cc2c(O)cc(O)c([C@@H]3c4c(O)cc(O)cc4O[C@H](c4ccc(O)c(O)c4)[C@H]3O)c2O[C@@H]1c1ccc(O)c(O)c1)c1cc(O)c(O)c(O)c1` the entry was “Active”; with `O=C(O[C@@H]1Cc2c(O)cc(O)cc2O[C@@H]1c1cc(O)c(O)c(O)c1)c1cc(O)c(O)c(O)c1`, “Active”; with `O=C(O[C@@H]1Cc2c(O)cc(O)c([C@H]3c4c(O)cc(O)cc4O[C@H](c4ccc(O)c(O)c4)[C@@H]3O)c2O[C@@H]1c1ccc(O)c(O)c1)c1cc(O)c(O)c(O)c1`, “Active”.
With `O=C(O[C@@H]1[C@@H](c2c(O)cc(O)c3c2O[C@H](c2ccc(O)c(O)c2)[C@H](O)C3)c2c(O)cc(O)cc2O[C@@H]1c1ccc(O)c(O)c1)c1cc(O)c(O)c(O)c1` the entry was “Active”.
Consider `O=C(O[C@H]1[C@H](c2c(O)cc(O)c3c2O[C@H](c2ccc(O)c(O)c2)[C@@H](O)C3)c2c(O)cc(O)cc2O[C@@H]1c1ccc(O)c(O)c1)c1cc(O)c(O)c(O)c1`, for which the inhibition entry was “Active”.
